pIC50: −log10 of the molar value.
Legend:
Format in all cases: biochemical
[1] = target: PAK3 (Homo sapiens, UniProt O75914); assay: In vitro PAK inhibition assay (SelectScreen, Ser/Thr 20 peptide)
Method: (§1) Compounds are screened in 1% DMSO (final) in the well. For 10 point titrations, 3-fold serial dilutions are conducted.
(§2) All Peptide/Kinase Mixtures are diluted to a 2× working concentration in the appropriate Kinase Buffer
The 2×PAK3/Ser/Thr 20 mixture is prepared in 50 mM HEPES pH 7.5, 0.01% BRIJ-35, 10 mM MgCl2, 1 mM EGTA.
(§3) This control yields 100% cleaved peptide in the Development Reaction.
(§4) The 100% Phosphorylation Control, which consists of a synthetically phosphorylated peptide of the same sequence as the peptide substrate, is designed to allow for the calculation of percent phosphorylation.
(§5) This control is designed to produce a 10-50%* phosphorylated peptide in the Kinase Reaction.
(§6) A known inhibitor control standard curve, 10 point titration, is run for each individual kinase on the same plate as the kinase to ensure the kinase is inhibited within an expected IC50 range previously determined.
(§7) Add the following solutions to a well in a 384-well plate: • 2.5 μL of 4× Test Compound OR (100 nL 100× Test Compound plus 2.4 μL kinase buffer) • 5 μL of 2× Peptide/Kinase (PAK) Mixture • 2.5 μL of 4×ATP Solution • 2. Shake the plate for 30-seconds • 3. Incubate the PAK Kinase Reaction at room temperature for 60-minutes • 4. Add 5 μL of Development Reagent Solution to each well • 5. Shake the plate for 30-seconds • 6. Incubate the Development Reaction for 60-minutes • 7. Determine the fluorescence using a fluorescence plate reader • 8. Analyze the fluorescence data
(§8) SelectScreen® Kinase Profiling Service uses XLfit from IDBS.
(§9) The representative IC50 value with a known inhibitor for each kinase was determined at the ATP bin nearest to the ATP Km app.

[2] = target: PAK4 (Homo sapiens, UniProt O96013); assay: as above
Method: as §1, §2
The 2×PAK4/Ser/Thr 20 mixture is prepared in 50 mM HEPES pH 7.5, 0.01% BRIJ-35, 10 mM MgCl2, 1 mM EGTA. The final 10 μL Kinase Reaction consists of 0.1-0.75 ng PAK4 and 2 μM Ser/Thr 20 in 50 mM HEPES pH 7.5, 0.01% BRIJ-35, 10 mM MgCl2, 1 mM EGTA. After the 1 hour Kinase Reaction incubation, 5 μL of a 1:256 dilution of Development Reagent A is added.
as §3, §4
The minimum Emission Ratio in a screen is established by the 0% Inhibition Control, which contains active kinase. This control is designed to produce a 10-50%* phosphorylated peptide in the Kinase Reaction.
as §6
as §7, with “Bar-coded Corning, low volume NBS, black 384-well plate (Corning Cat. #3676) • 1. Add the” for “Add the”
SelectScreen® Kinase Profiling Service uses XLfit from IDBS. The dose response curve is curve fit to model number 205 (sigmoidal dose-response model).
The table below provides specifications and data around each kinase. The representative IC50 value with a known inhibitor for each kinase was determined at the ATP bin nearest to the ATP Km app.

[3] = target: PAK2 (PAK65) (Homo sapiens, UniProt Q13177); assay: as above
Method: as §1, §2
The 2×PAK2 (PAK65)/Ser/Thr 20 mixture is prepared in 50 mM HEPES pH 7.5, 0.01% BRIJ-35, 10 mM MgCl2, 1 mM EGTA. The final 10 μL Kinase Reaction consists of 0.29-6 ng PAK2 (PAK65) and 2 μM Ser/Thr 20 in 50 mM HEPES pH 7.5, 0.01% BRIJ-35, 10 mM MgCl2, 1 mM EGTA.
as §3, §4, §5, §6, §7, §8, §9

[4] = target: PAK1 (Homo sapiens, UniProt Q13153); assay: In vitro PAK inhibition assay (SelectScreen, Ser/Thr 19 peptide)
Method: as §1, §2
The 2×PAK1/Ser/Thr 19 mixture is prepared in 50 mM HEPES pH 7.5, 0.01% BRIJ-35, 10 mM MgCl2, 1 mM EGTA.
as §3, §4, §5, §6, §7, §8, §9

Sequence of PAK3 (O75914 whole entry): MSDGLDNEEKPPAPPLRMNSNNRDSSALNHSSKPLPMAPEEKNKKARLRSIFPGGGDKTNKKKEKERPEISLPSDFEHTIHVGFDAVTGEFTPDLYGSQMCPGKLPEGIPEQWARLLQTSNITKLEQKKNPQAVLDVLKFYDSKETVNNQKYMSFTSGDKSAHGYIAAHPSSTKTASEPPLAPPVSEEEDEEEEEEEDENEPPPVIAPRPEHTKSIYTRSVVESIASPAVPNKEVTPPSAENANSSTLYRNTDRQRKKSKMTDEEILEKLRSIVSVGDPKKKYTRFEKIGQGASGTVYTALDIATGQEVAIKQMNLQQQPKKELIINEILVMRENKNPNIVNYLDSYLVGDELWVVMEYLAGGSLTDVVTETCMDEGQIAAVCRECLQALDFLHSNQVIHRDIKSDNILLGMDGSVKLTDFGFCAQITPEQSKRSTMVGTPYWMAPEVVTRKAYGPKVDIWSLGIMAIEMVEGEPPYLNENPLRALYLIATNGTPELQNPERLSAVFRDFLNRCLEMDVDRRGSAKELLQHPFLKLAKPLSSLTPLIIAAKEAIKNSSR
Sequence of PAK2 (PAK65) (Q13177 whole entry): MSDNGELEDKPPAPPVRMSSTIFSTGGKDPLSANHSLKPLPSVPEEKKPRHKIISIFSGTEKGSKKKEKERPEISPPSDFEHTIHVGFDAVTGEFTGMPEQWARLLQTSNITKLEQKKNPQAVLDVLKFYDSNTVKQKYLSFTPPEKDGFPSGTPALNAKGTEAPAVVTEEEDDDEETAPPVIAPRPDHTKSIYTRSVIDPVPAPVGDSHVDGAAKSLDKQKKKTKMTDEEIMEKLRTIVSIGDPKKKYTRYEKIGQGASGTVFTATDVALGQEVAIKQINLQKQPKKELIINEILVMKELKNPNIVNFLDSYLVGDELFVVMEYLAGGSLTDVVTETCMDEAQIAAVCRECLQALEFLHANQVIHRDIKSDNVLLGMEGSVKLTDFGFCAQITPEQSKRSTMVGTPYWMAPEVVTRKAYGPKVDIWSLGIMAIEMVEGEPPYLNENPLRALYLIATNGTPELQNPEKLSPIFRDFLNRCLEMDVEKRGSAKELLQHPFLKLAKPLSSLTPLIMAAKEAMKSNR
Sequence of PAK4 (O96013 whole entry): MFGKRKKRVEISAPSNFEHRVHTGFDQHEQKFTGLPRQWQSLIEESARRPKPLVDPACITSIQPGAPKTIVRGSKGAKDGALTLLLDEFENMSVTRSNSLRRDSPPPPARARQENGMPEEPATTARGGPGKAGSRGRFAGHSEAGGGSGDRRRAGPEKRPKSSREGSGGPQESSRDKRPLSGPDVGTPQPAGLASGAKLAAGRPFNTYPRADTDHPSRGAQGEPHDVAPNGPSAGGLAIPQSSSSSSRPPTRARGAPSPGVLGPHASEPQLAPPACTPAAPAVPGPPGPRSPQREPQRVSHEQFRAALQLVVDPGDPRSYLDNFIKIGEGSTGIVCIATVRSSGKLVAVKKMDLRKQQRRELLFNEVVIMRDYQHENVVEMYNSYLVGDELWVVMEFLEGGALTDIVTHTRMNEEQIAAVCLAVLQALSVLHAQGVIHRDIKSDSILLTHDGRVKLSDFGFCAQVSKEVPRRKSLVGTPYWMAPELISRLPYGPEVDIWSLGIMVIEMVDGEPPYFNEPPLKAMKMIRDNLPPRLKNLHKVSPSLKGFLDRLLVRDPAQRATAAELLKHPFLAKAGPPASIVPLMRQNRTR
Sequence of PAK1 (Q13153 whole entry): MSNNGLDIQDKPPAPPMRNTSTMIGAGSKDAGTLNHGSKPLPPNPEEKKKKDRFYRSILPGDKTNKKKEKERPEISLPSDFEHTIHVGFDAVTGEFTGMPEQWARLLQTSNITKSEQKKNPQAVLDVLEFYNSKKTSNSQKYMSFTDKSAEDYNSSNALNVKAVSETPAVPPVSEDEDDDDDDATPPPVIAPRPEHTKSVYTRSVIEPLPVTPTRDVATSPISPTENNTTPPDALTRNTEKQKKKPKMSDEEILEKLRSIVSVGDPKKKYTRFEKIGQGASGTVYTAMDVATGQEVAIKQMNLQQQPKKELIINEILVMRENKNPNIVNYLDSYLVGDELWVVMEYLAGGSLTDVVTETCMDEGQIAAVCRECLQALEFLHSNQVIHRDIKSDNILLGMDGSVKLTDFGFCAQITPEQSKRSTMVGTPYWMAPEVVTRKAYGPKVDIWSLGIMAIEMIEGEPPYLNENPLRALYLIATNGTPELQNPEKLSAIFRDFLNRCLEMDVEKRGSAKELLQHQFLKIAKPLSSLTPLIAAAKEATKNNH

Row | pIC50 [1] | pIC50 [2] | pIC50 [3] | pIC50 [4] | Compound
1 | 6.30 to 7.30 | ≤ 5.30 | > 7.30 | > 7.30 | CCn1c(=O)c(-c2ccc(-c3cccs3)cc2Cl)cc2cnc(Nc3ccc(N4CCN(C)CC4)cc3)nc21
2 | 6.30 to 7.30 | ≤ 5.30 | 6.30 to 7.30 | 6.30 to 7.30 | CCn1c(=O)c(-c2ccc(C3CC3)cc2Cl)cc2cnc(Nc3ccc(N4CCN(C)CC4)cc3)nc21
3 | 5.30 to 6.30 | ≤ 5.30 | 5.30 to 6.30 | 5.30 to 6.30 | CCn1c(=O)c(-c2ccc(C3CC3)cc2C2CC2)cc2cnc(Nc3ccc(N4CCN(C)CC4)cc3)nc21
4 | > 7.30 | 5.30 to 6.30 | > 7.30 | > 7.30 | CCn1c(=O)c(-c2ccc(-c3nccs3)cc2Cl)cc2cnc(Nc3ccc(N4CCN(C)CC4)cc3)nc21
5 | < 5.30 | ≤ 5.30 | < 5.30 | < 5.30 | CCn1c(=O)c(-c2ccc(-c3ccncc3)s2)cc2cnc(Nc3ccc(N4CCN(C)CC4)cc3)nc21
6 | < 5.30 | ≤ 5.30 | < 5.30 | < 5.30 | CCn1c(=O)c(-c2ccc(-c3ccon3)s2)cc2cnc(Nc3ccc(N4CCN(C)CC4)cc3)nc21
7 | 6.30 to 7.30 | ≤ 5.30 | 6.30 to 7.30 | 6.30 to 7.30 | CCn1c(=O)c(-c2ccc(-c3cn[nH]c3)cc2Cl)cc2cnc(Nc3ccc(N4CCN(C)CC4)cc3)nc21
8 | > 7.30 | 5.30 to 6.30 | > 7.30 | > 7.30 | CCn1c(=O)c(-c2ccc(-c3cccnc3)cc2Cl)cc2cnc(Nc3ccc(N4CCNCC4)c(F)c3)nc21
9 | 6.30 to 7.30 | ≤ 5.30 | 6.30 to 7.30 | > 7.30 | CCOC(=O)c1nc(-c2ccc(-c3cc4cnc(Nc5ccc(N6CCN(C)CC6)cc5)nc4n(CC)c3=O)c(Cl)c2)no1
10 | > 7.30 | 5.30 to 6.30 | > 7.30 | > 7.30 | CCn1c(=O)c(-c2ccc(-c3cncnc3)cc2Cl)cc2cnc(Nc3ccc(N4CCNCC4)c(F)c3)nc21
11 | > 7.30 | 5.30 to 6.30 | > 7.30 | > 7.30 | CCn1c(=O)c(-c2ccc(-c3cncnc3)cc2Cl)cc2cnc(Nc3ccc(N4CCNCC4)cc3)nc21
12 | 6.30 to 7.30 | ≤ 5.30 | > 7.30 | > 7.30 | CCn1c(=O)c(-c2ccc(-c3noc(C(F)(F)F)n3)cc2Cl)cc2cnc(Nc3ccc(N4CCN(C)CC4)cc3)nc21
13 | > 7.30 | 5.30 to 6.30 | > 7.30 | > 7.30 | CCN1CCN(c2ccc(Nc3ncc4cc(-c5ccc(-c6cncnc6)cc5Cl)c(=O)n(CC)c4n3)cc2F)CC1
14 | > 7.30 | 5.30 to 6.30 | > 7.30 | > 7.30 | CCn1c(=O)c(-c2ccc(-c3cccnc3)cc2Cl)cc2cnc(Nc3ccc(N4CCNCC4)cc3)nc21
15 | > 7.30 | 5.30 to 6.30 | > 7.30 | > 7.30 | CCn1c(=O)c(-c2ccc(-c3cccnc3)cc2Cl)cc2cnc(Nc3ccc(N4CCN(C)CC4)c(F)c3)nc21
16 | > 7.30 | ≤ 5.30 | > 7.30 | > 7.30 | CCn1c(=O)c(-c2ccc(-c3cncnc3)cc2Cl)cc2cnc(Nc3ccc(N4CCN(C)CC4)c(F)c3)nc21
17 | > 7.30 | ≤ 5.30 | > 7.30 | > 7.30 | CCn1c(=O)c(-c2ccc(-c3cncnc3)cc2Cl)cc2cnc(Nc3ccc(N4CCN(C(C)C)CC4)c(F)c3)nc21
18 | > 7.30 | 5.30 to 6.30 | > 7.30 | > 7.30 | CCn1c(=O)c(-c2ccc(-c3cncnc3)cc2Cl)cc2cnc(Nc3ccc(N4CCN(C(C)C)CC4)cc3)nc21
19 | > 7.30 | 5.30 to 6.30 | > 7.30 | > 7.30 | CCN1CCN(c2ccc(Nc3ncc4cc(-c5ccc(-c6cccnc6)cc5Cl)c(=O)n(CC)c4n3)cc2)CC1

Row | pIC50 [1] | pIC50 [2] | pIC50 [3] | pIC50 [4] | Compound
20 | > 7.30 | 5.30 to 6.30 | > 7.30 | > 7.30 | CCn1c(=O)c(-c2ccc(-c3cncs3)cc2Cl)cc2cnc(Nc3ccc(N4CCNCC4)cc3)nc21
21 | > 7.30 | 5.30 to 6.30 | > 7.30 | > 7.30 | CCn1c(=O)c(-c2ccc(-c3noc(C)n3)cc2Cl)cc2cnc(Nc3ccc(N4CCN(C)CC4)cc3)nc21
22 | > 7.30 | ≤ 5.30 | > 7.30 | > 7.30 | CCn1c(=O)c(-c2ccc(-c3cccnc3)cc2Cl)cc2cnc(Nc3ccc(N4CCN(C(C)C)CC4)c(F)c3)nc21
23 | > 7.30 | 5.30 to 6.30 | > 7.30 | > 7.30 | CCN1CCN(c2ccc(Nc3ncc4cc(-c5ccc(-c6cncnc6)cc5Cl)c(=O)n(CC)c4n3)cc2)CC1
24 | > 7.30 | 5.30 to 6.30 | > 7.30 | > 7.30 | CCn1c(=O)c(-c2ccc(-c3cncs3)cc2Cl)cc2cnc(Nc3ccc(N4CCNCC4)c(F)c3)nc21
25 | > 7.30 | ≤ 5.30 | > 7.30 | > 7.30 | CCn1c(=O)c(-c2ccc(-c3cncs3)cc2Cl)cc2cnc(Nc3ccc(N4CCN(C)CC4)c(F)c3)nc21
26 | > 7.30 | ≤ 5.30 | > 7.30 | > 7.30 | CCn1c(=O)c(-c2ccc(-c3cncs3)cc2Cl)cc2cnc(Nc3ccc(N4CCN(C(C)C)CC4)c(F)c3)nc21
27 | > 7.30 | 6.30 to 7.30 | > 7.30 | > 7.30 | CCn1c(=O)c(-c2ccc(-c3noc(C)n3)cc2Cl)cc2cnc(Nc3ccc(N4CCNCC4)cc3)nc21
28 | > 7.30 | ≤ 5.30 | > 7.30 | > 7.30 | CCn1c(=O)c(-c2ccc(-c3scnc3C)cc2Cl)cc2cnc(Nc3ccc(N4CCN(C)CC4)cc3)nc21
29 | 6.30 to 7.30 | ≤ 5.30 | > 7.30 | > 7.30 | CCN1CCN(c2ccc(Nc3ncc4cc(-c5ccc(-c6cncs6)cc5Cl)c(=O)n(CC)c4n3)cc2F)CC1
30 | 6.30 to 7.30 | ≤ 5.30 | > 7.30 | > 7.30 | CCn1c(=O)c(-c2ccc(-c3scnc3C)cc2Cl)cc2cnc(Nc3ccc(N4CCN(C(C)C)CC4)cc3)nc21
31 | > 7.30 | 5.30 to 6.30 | > 7.30 | > 7.30 | CCn1c(=O)c(-c2ccc(-c3ncccn3)cc2Cl)cc2cnc(Nc3ccc(N4CCN(C)CC4)cc3)nc21
32 | > 7.30 | ≤ 5.30 | > 7.30 | > 7.30 | CCn1c(=O)c(-c2ccc(-c3cnc(C)s3)cc2Cl)cc2cnc(Nc3ccc(N4CCN(C)CC4)cc3)nc21
33 | > 7.30 |  |  |  | CCn1c(=O)c(-c2ccc(-c3noc(C)n3)cc2Cl)cc2cnc(Nc3ccc(C4CCNCC4)cc3)nc21
34 | 6.30 to 7.30 |  |  |  | CCn1c(=O)c(-c2ccc(-c3cnc(C)s3)cc2Cl)cc2cnc(Nc3ccc(C4CCNCC4)cc3)nc21
35 | 6.30 to 7.30 |  |  |  | CCn1c(=O)c(-c2ccc(-c3cccnc3C)cc2Cl)cc2cnc(Nc3ccc(C4CCNCC4)cc3)nc21
36 |  |  | 6.30 to 7.30 | 6.30 to 7.30 | CCn1c(=O)c(-c2ccc(-c3ccnc(C)c3)cc2Cl)cc2cnc(Nc3ccc(C4CCNCC4)c(F)c3)nc21
37 |  | 5.30 to 6.30 |  |  | CCn1c(=O)c(-c2ccc(-c3cccnc3F)cc2Cl)cc2cnc(Nc3ccc(C4CCNCC4)cc3)nc21

From US20140163026A1, “8-ETHYL-6-(ARYL)PYRIDO[2,3-D]PYRIMIDIN-7(8H)-ONES FOR THE TREATMENT OF NERVOUS SYSTEM DISORDERS AND CANCER” (Afraxis Holdings, Inc., priority 2011, published 2014)
